According to patent US20180111893A1, “POLYCATIONIC AMPHIPHILES AND POLYMERS THEREOF AS ANTIMICROBIAL AGENTS AND METHODS USING SAME” (Temple University-Of The Commonwealth System of Higher …, priority 2015, published 2018):

Tests used:
[1] = tested on: Staphylococcus aureus (MSSA) biofilms; assay: Minimum biofilm eradication concentration (MBEC), regrowth assay; assay type: cell-based; parameters: MBEC MSSA: unit not given here; conditions: for MBEC v SA: Table 1; for MBEC MSSA: Table 5, regrowth OD under 0.1 (italics: OD < 0.5)
Protocol: (§1) A regrowth assay was used to establish the MBEC of a compound to evaluate the antibiofilm activity. See also H. Ceri, M. Olson, D. Morck, D. Storey, R. Read, A. Buret, B. Olson, Methods Enzymol. 2001, 337, 377, which is incorporated by reference herein in its entirety.
(§2) To each well of a flat-bottomed 96-well plate (Corning 3370), 8 μL of overnight bacterial culture was brought to a volume of 200 μL with fresh media (BHI for MSSA and MRSA). Plates were incubated statically for 24 hours at 37° C. to establish biofilms. After 24 hours, the wells were carefully emptied by inverting the plate and gently shaking. A pre-mixed solution of media and compound stock solution was added to each well and plates were incubated at 37° C. 16 hours after pre-established biofilms were treated with compound, the media from each well was removed, biofilms were washed three times with 200 μL PBS to remove planktonic cells, and biofilms were incubated overnight at 37° C. in 200 μL of fresh media to allow any viable cells to continue growing. The wells were then vigorously pipetted to resuspend the biofilm cells and the OD at 595 nm was measured using a plate reader (POLARstar Omega, BMG Labtech). Biofilms reaching a final OD of less than 0.1 were considered eradicated and the lowest concentration of antibiotic corresponded to the MBEC. Four replicates were completed for each concentration of compound as well as positive and negative controls.

[2] = tested on: Escherichia coli (MC4100); assay: Minimum inhibitory concentration (MIC); assay type: cell-based; conditions: for MIC v EC: Table 1; for MIC EC: Table 6
Protocol: (§3) As used herein, the term “minimum inhibitory concentration (MIC)” refers to the lowest concentration of an antimicrobial agent that will inhibit the visible growth of a microorganism after overnight incubation. MIC values against bacteria, for example, the Gram-positive Staphylococcus aureus and Enterococcus faecalis and the Gram-negative Escherichia coli and Pseudomonas aeruginosa were determined by standard methods. See also P. A. Wayne, Methods for Dilution Antimicrobial Tests for Bacteria that Grow Aerobically; Approved Standard, Ninth Edition, 2012, CLSI Document M07-A9, Vol. 32 No. 2, which is incorporated by reference herein in its entirety.
(§4) Compounds were serially diluted two-fold from a 10% DMSO/aqueous stock solution to yield twelve test concentrations. Overnight S. aureus, E. faecalis, E. coli, P. aeruginosa, CA-MRSA, and HA-MRSA cultures diluted to ca. 10^6 cfu/mL in Mueller-Hinton media and 100 μL were inoculated into each well of a U-bottom 96-well plate (BD Biosciences, BD351177) containing 100 μL of compound solution. Plates were incubated statically at 37° C. for 72 hours upon which time wells were evaluated visually for bacterial growth. The MIC was determined as the lowest concentration of compound resulting in no bacterial growth visible to the naked eye, based on the majority of three independent experiments. Positive and negative DMSO/aqueous solution and media controls were conducted for each trial. See Peng et al., 2011, Chem. Comm. 47:4896-4898.
as §4, with “trial.” for “trial. See Peng et al., 2011, Chem. Comm. 47:4896-4898.”

[3] = tested on: Enterococcus faecalis (OG1RF); assay: Minimum inhibitory concentration (MIC); assay type: cell-based; conditions: for MIC v EF: Table 1; for MIC EF: Table 6
Protocol: as §3, §4
as §4, with “trial.” for “trial. See Peng et al., 2011, Chem. Comm. 47:4896-4898.”

[4] = tested on: Pseudomonas aeruginosa (PAO1); assay: Minimum inhibitory concentration (MIC); assay type: cell-based; conditions: for MIC v PA: Table 1; for MIC PA: Table 6
Protocol: as §3, §4
as §4, with “trial.” for “trial. See Peng et al., 2011, Chem. Comm. 47:4896-4898.”

[5] = tested on: Staphylococcus aureus (SA; MSSA SH1000); assay: Minimum inhibitory concentration (MIC); assay type: cell-based; conditions: for MIC v SA: Table 1; for MIC SA: Table 6
Protocol: as §3, §4
as §4, with “trial.” for “trial. See Peng et al., 2011, Chem. Comm. 47:4896-4898.”

[6] = tested on: Enterococcus faecalis biofilms; assay: Minimum biofilm eradication concentration (MBEC), regrowth assay; assay type: cell-based; conditions: Table 1
Source text: as §1

[7] = tested on: MRSA biofilms (S. aureus USA300-0114); assay: as above; assay type: cell-based, Staphylococcus aureus; parameters: MBEC MRSA: unit not given here; conditions: Table 5; regrowth OD under 0.1 (italics: OD < 0.5)
Protocol: as §1, §2

[8] = tested on: hospital-acquired methicillin-resistant Staphylococcus aureus HA-MRSA (ATCC 33591); assay: Minimum inhibitory concentration (MIC); assay type: cell-based; conditions: Table 6
Protocol: as §3, §4
as §4, with “trial.” for “trial. See Peng et al., 2011, Chem. Comm. 47:4896-4898.”

[9] = tested on: community-acquired methicillin-resistant Staphylococcus aureus CA-MRSA (USA300-0114); assay: Minimum inhibitory concentration (MIC); assay type: cell-based; conditions: Table 6
Protocol: as §3, §4
as §4, with “trial.” for “trial. See Peng et al., 2011, Chem. Comm. 47:4896-4898.”

[10] = tested on: six bacteria (SA, HA-MRSA, CA-MRSA, EF, EC, PA); assay: MIC against the panel of bacteria tested; assay type: cell-based; conditions: all bacteria except for P. aeruginosa
Protocol: as §3
The complete set of MIC values against six bacteria [Staphylococcus aureus (SA), hospital-acquired methicillin-resistant SA (HA-MRSA), community-acquired methicillin-resistant SA (CA-MRSA), Enterococcus faecalis (EF), Escherichia coli (EC), and Pseudomonas aeruginosa (PA)] is presented in Table 3, wherein multiQACs are grouped with their monoQAC counterparts. The dye-based QACs with greatest inhibition of the complete range of Gram-positive and Gram-negative bacteria featured bis- or tris-quaternization, with the optimal alkyl total ranging from 17-24 carbons. For example, comparison of two biscationic series -LMG-n,1 and LMG-n,n—evaluates the effect of total alkyl chain length in retention of efficacy against the more challenging CA-MRSA and the Gram-negative strains EC and PA.
as §4

**Q.** For `CCCCCCCCCCCC[N+](C)(C)CCCN(C)CCC[N+](C)(C)CCCCCCCCCCCC` [12(3)0(3)12], which “MBEC v SA” value [1] is on record?
**A.** Its value is 37.5 µM.

**Q.** What about the “MIC v EC” value [2] of the same molecule?
**A.** Its value is 1 µM.

**Q.** What about the “MIC v EF” value [3] of the same molecule?
**A.** The value was 2 µM.

**Q.** And the “MIC v PA” value [4]?
**A.** Its value is 4 µM.

**Q.** What about the “MIC v SA” value [5] of the same molecule?
**A.** Its value is 1 µM.

**Q.** What about the “MBEC v EF” value [6] of the same molecule?
**A.** The value was 50 µM.

**Q.** How did the “MBEC MSSA” value [1] turn out when `CCCCCCCCCCCCCCCCCCCC[N+]1(C)CCN(C)CCN(C)CC1.[Br-]` [C-20,0,0] was run?
**A.** Its value is >200.

**Q.** And the “MBEC MRSA” value [7]?
**A.** The value was >200.

**Q.** What does the source list for `CCCCCCCCCCCC[N+](C)(C)CCN(C)CCN(C)CC[N+](C)(C)CCCCCCCCCCCC` [N4-12,0,0,12]?
**A.** MBEC v SA [1]: 50 µM; MIC v EC [2]: 1 µM; MIC v EF [3]: 1 µM; MIC v PA [4]: 2 µM; MIC v SA [5]: 1 µM; MBEC v EF [6]: 75 µM

**Q.** Which results are given for `CCCCCCCCCCCCC[N+](C)(C)CCCN(CCC[N+](C)(C)CCCCCCCCCCCCC)CCC[N+](C)(C)CCCCCCCCCCCCC` [sT-13,13,13,0]?
**A.** MIC HA-MRSA [8]: 1 µM; MIC EC [2]: 1 µM; MIC EF [3]: 1 µM; MIC PA [4]: 8 µM; MIC CA-MRSA [9]: 0.5 µM; MIC SA [5]: 1 µM

**Q.** For `CCCCCCCCCCCCCCCCCC[N+]1(C)CCN(C)CCN(C)CC1.[Br-]` [C-18,0,0], which “MBEC MSSA” value [1] is on record?
**A.** Its value is 200.

**Q.** And the “MBEC MRSA” value [7]?
**A.** Its value is >200.

**Q.** `CCCCCCCCCCCCCCCCCC[n+]1cccc([C@@H]2CCC[N+]2(C)C)c1.[Br-].[I-]` [N-18,1] was tested. Which low micromolar activity [10] did it give?
**A.** The low micromolar activity was 4 µM.

**Q.** Which results are given for `CCCCCCCCCCCC[N+](C)(C)CCC[N+](C)(CCC[N+](C)(C)CCCCCCCCCCCC)CCC[N+](C)(C)CCCCCCCCCCCC` [sT-12,12,12,1]?
**A.** MIC HA-MRSA [8]: 2 µM; MIC EC [2]: 1 µM; MIC EF [3]: 1 µM; MIC PA [4]: 4 µM; MIC CA-MRSA [9]: 0.5 µM; MIC SA [5]: 1 µM

**Q.** For `CCCCCCCCCCCCCCCC[N+]1(C)CC[N+](C)(C)CC[N+](C)(C)CC1` [C-16,1,1], which “MBEC MSSA” value [1] is on record?
**A.** Its value is 200.

**Q.** And the “MBEC MRSA” value [7]?
**A.** Its value is 200.

**Q.** How did the “MBEC MSSA” value [1] turn out when `CCCCCCCCCCCCCCCCCC[N+]1(C)CC[N+](C)(C)CC[N+](C)(C)CC1` [C-18,1,1] was run?
**A.** Its value is >200.

**Q.** What about the “MBEC MRSA” value [7] of the same molecule?
**A.** The value was >200.

**Q.** How did the low micromolar activity [10] turn out when `CCCCCCCCCCCCCCCC[n+]1cccc([C@@H]2CCCN2C)c1.[Br-]` [N-16,0] was run?
**A.** Its low micromolar activity is 4 µM.

**Q.** What does the source list for `CCCCCCCCCCCC[N+](C)(C)CCCN(CCC[N+](C)(C)CCCCCCCCCCCC)CCC[N+](C)(C)CCCCCCCCCCCC` [sT-12,12,12,0]?
**A.** MIC HA-MRSA [8]: 1 µM; MIC EC [2]: 1 µM; MIC EF [3]: 1 µM; MIC PA [4]: 4 µM; MIC CA-MRSA [9]: 0.5 µM; MIC SA [5]: 0.5 µM

**Q.** How did the “MBEC MSSA” value [1] turn out when `CCCCCCCCCC[N+](C)(C)CCCN(CC[N+](C)(C)CCCCCCCCCC)CC[N+](C)(C)CCCCCCCCCC` [T-10,10,10] was run?
**A.** The value was 100.

**Q.** What about the “MBEC MRSA” value [7] of the same molecule?
**A.** Its value is 200.
